Measured values from ChEMBL document CHEMBL1201862, “PubChem BioAssay data set” (2004).
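In this assay, cells in 96-well plates receive the compound at five concentrations for 48 hours. Endpoints are linearly interpolated between the surrounding concentrations. Abbreviation: GI50, concentration required for 50% inhibition of growth.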 Calls of active or inactive are those of the source. Cut-off read from the data, not from the text of the source: active = GI50 up to about 1.1 µM and inactive = higher.

Experiments:
Experiment in all cases: growth of human tumour cells (NCI), 48 h
[1] = test system: MDA-MB-435
[2] = test system: NCI-H522
[3] = test system: LOX IMVI
[4] = test system: SR
[5] = test system: HCT-116
[6] = test system: IGROV-1
[7] = test system: TK-10
[8] = test system: OVCAR-8
[9] = test system: SF-295
[10] = test system: UACC-257
[11] = test system: UACC-62
[12] = test system: OVCAR-3
[13] = test system: OVCAR-5
[14] = test system: MOLT-4
[15] = test system: A549
[16] = test system: SNB-19
[17] = test system: NCI-H226
[18] = test system: UO-31
[19] = test system: ACHN
[20] = test system: Malme-3M

Measured: GI50

C[C@@H](CO)C1=CC(C#C[Si](C)(C)C)N(C(=O)Oc2ccccc2)c2ccccc21 (stereo partly specified)
inactive: [1] 3.45 µM | [2] 16.8 µM | [3] 17.6 µM | [4] 5.65 µM | [5] 15.3 µM | [6] 17.1 µM | [7] 31.1 µM | [8] 17.5 µM | [9] 12.2 µM | [10] 16.8 µM | [11] 9.1 µM | [12] 13.2 µM | [13] 19.8 µM | [14] 3.29 µM | [15] 20.9 µM | [16] 27.2 µM | [17] 20 µM | [18] 14.7 µM | [19] 18.6 µM

CC1(C)c2ccccc2C(O)C12CCC(=O)CC2 (stereo unspecified)
inactive: [1] > 100 µM | [2] > 100 µM | [3] > 100 µM | [4] > 100 µM | [5] 9.2 µM | [6] > 100 µM | [7] > 100 µM | [20] > 100 µM | [9] > 100 µM | [10] > 100 µM | [11] > 100 µM | [12] > 100 µM | [13] > 100 µM | [15] 34 µM | [16] > 100 µM | [17] > 100 µM | [18] > 100 µM | [19] > 100 µM

C=C(C)[C@@H]1CC[C@]2(CO)CC[C@]3(C)[C@H](CC[C@@H]4[C@@]5(C)CC[C@H](O)C(C)(C)[C@@H]5CC[C@]43C)[C@@H]12 [BETULIN]
inactive: [1] 19.5 µM | [2] 20.4 µM | [3] 14.6 µM | [4] 43 µM | [5] 30.8 µM | [6] 34.8 µM | [7] 17.1 µM | [8] 12.5 µM | [20] 52.5 µM | [9] 14 µM | [10] 23.3 µM | [12] 28.2 µM | [13] 55.7 µM | [14] 32.4 µM | [15] 9.35 µM | [16] > 10 µM | [17] 39 µM | [18] 11.1 µM | [19] 11.1 µM

Cc1cn([C@@H]2C[C@](C)(CO)N(C)O2)c(=O)[nH]c1=O
inactive: [1] > 100 µM | [2] > 100 µM | [3] > 100 µM | [4] > 100 µM | [5] > 100 µM | [6] > 100 µM | [7] > 100 µM | [8] > 100 µM | [20] > 100 µM | [9] > 100 µM | [10] > 100 µM | [11] > 100 µM | [13] > 100 µM | [15] > 100 µM | [16] > 100 µM | [17] > 100 µM | [18] > 100 µM | [19] > 100 µM

COc1nc(C)nc2c1ncn2Cc1ccccc1
inactive: [1] > 100 µM | [2] > 100 µM | [3] > 100 µM | [4] > 100 µM | [5] > 100 µM | [6] > 100 µM | [7] > 100 µM | [8] > 100 µM | [20] > 100 µM | [9] > 100 µM | [10] > 100 µM | [11] > 100 µM | [12] > 100 µM | [13] > 100 µM | [15] > 100 µM | [16] > 100 µM | [17] > 100 µM | [19] > 100 µM

CNC(=O)ON(C(C)=O)C(=O)NC [CARACEMIDE]
inactive: [1] 15.3 µM | [2] 21.5 µM | [3] 33.7 µM | [4] 28.1 µM | [5] 45 µM | [6] 86.9 µM | [7] 25.5 µM | [8] 78.3 µM | [20] 44.1 µM | [9] 115 µM | [10] 69.5 µM | [11] 47.6 µM | [12] 54.1 µM | [13] 126 µM | [15] 92.3 µM | [16] 157 µM | [17] 95.1 µM | [18] 54.3 µM | [19] 18.7 µM
